Data: ChEMBL document CHEMBL2321733, “[3a,4]-Dihydropyrazolo[1,5a]pyrimidines: Novel, Potent, and Selective Phosphatidylinositol-3-kinase β Inhibitors” (ACS Med Chem Lett, 2013)
Values after ≈ are worked out from the molar mass of the structure shown.

Experiments:
[1] = Plasma protein binding in mouse serum by equilibrium dialysis; assay type: ADME, cell-free; details: read-out: PPB (converted)
[2] = Plasma protein binding in rat serum by equilibrium dialysis; assay type: ADME, cell-free; details: read-out: PPB (converted)
[3] = Plasma protein binding in human serum by equilibrium dialysis; assay type: ADME, cell-free; details: read-out: PPB (converted)
[4] = target: T1, Phosphatidylinositol 4,5-bisphosphate 3-kinase catalytic subunit beta isoform (Homo sapiens, UniProt P42338); assay: Inhibition of PI3Kbeta human in PTEN-null MDA-MB-468 cells assessed as reduction of AKT phosphorylation at Ser 473 in absence of serum; assay type: cell-based
T1 sequence (P42338 whole entry, canonical isoform): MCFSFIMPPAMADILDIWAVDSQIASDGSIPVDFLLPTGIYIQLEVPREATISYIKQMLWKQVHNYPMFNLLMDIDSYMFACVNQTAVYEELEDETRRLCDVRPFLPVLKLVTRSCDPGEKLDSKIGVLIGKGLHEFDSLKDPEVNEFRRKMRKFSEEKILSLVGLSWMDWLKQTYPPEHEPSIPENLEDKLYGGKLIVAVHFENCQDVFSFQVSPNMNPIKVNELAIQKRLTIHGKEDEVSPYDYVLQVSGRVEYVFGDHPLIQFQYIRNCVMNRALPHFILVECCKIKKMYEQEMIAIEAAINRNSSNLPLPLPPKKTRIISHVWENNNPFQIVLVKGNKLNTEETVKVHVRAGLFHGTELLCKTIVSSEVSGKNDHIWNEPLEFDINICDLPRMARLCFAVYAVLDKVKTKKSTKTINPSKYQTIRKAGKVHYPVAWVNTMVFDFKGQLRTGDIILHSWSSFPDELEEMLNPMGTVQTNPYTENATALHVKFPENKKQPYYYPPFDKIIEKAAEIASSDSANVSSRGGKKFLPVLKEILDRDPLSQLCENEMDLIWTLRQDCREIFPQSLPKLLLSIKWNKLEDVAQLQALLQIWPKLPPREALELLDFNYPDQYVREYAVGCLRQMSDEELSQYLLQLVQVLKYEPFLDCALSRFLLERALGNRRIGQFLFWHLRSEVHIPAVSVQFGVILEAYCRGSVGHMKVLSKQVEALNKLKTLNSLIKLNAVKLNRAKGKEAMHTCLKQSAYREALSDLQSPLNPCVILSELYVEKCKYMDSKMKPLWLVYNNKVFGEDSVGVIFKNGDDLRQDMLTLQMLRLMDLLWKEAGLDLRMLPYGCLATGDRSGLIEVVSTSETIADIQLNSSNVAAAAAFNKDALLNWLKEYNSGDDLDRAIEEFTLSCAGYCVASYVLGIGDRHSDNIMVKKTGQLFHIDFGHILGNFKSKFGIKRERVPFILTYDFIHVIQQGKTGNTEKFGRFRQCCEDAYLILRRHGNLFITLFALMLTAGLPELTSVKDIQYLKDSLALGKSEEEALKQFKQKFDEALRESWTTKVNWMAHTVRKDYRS

[5] = target: T1, Phosphatidylinositol 4,5-bisphosphate 3-kinase catalytic subunit beta isoform; assay: Inhibition of PI3Kbeta human in PTEN-null MDA-MB-468 cells assessed as reduction of AKT phosphorylation at Ser 473 in presence of serum; assay type: cell-based
[6] = target: T1, Phosphatidylinositol 4,5-bisphosphate 3-kinase catalytic subunit beta isoform; assay: Inhibition of PI3Kbeta (unknown origin)
[7] = target: Phosphatidylinositol 4,5-bisphosphate 3-kinase catalytic subunit gamma isoform (Homo sapiens, UniProt P48736); assay: Inhibition of PI3Kgamma (unknown origin)
Phosphatidylinositol 4,5-bisphosphate 3-kinase catalytic subunit gamma isoform, sequence (P48736 whole entry, canonical isoform): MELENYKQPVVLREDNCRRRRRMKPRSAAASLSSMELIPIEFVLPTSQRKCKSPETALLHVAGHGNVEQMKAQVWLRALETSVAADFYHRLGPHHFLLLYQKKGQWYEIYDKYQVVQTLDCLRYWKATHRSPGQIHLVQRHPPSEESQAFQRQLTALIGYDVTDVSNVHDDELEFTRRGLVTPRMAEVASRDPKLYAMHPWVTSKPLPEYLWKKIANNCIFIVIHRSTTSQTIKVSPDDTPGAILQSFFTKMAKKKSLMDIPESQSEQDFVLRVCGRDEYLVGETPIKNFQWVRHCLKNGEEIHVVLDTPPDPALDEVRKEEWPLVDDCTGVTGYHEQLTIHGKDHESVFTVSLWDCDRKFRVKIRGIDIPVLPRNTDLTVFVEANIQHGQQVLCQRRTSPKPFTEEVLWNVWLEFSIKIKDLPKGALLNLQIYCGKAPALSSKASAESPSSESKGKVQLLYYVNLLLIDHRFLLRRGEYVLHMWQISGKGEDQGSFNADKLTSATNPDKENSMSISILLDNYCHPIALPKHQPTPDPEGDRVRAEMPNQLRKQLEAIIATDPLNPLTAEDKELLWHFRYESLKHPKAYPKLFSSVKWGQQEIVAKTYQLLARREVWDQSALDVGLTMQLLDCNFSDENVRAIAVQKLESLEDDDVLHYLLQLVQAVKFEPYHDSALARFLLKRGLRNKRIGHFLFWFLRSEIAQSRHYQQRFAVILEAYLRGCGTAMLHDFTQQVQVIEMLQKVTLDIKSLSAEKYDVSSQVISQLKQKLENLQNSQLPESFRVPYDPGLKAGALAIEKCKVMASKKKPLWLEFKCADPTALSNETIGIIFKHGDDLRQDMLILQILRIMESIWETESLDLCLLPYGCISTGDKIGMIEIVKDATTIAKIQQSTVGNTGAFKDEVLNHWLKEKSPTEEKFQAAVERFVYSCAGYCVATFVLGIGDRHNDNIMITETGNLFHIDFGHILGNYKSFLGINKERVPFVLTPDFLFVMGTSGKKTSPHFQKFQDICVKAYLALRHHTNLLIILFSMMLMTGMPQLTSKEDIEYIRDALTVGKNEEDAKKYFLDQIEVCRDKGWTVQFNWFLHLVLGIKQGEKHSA

[8] = target: Phosphatidylinositol 4,5-bisphosphate 3-kinase catalytic subunit alpha isoform (Homo sapiens, UniProt P42336); assay: Inhibition of PI3Kalpha (unknown origin)
Phosphatidylinositol 4,5-bisphosphate 3-kinase catalytic subunit alpha isoform, sequence (P42336 whole entry, canonical isoform): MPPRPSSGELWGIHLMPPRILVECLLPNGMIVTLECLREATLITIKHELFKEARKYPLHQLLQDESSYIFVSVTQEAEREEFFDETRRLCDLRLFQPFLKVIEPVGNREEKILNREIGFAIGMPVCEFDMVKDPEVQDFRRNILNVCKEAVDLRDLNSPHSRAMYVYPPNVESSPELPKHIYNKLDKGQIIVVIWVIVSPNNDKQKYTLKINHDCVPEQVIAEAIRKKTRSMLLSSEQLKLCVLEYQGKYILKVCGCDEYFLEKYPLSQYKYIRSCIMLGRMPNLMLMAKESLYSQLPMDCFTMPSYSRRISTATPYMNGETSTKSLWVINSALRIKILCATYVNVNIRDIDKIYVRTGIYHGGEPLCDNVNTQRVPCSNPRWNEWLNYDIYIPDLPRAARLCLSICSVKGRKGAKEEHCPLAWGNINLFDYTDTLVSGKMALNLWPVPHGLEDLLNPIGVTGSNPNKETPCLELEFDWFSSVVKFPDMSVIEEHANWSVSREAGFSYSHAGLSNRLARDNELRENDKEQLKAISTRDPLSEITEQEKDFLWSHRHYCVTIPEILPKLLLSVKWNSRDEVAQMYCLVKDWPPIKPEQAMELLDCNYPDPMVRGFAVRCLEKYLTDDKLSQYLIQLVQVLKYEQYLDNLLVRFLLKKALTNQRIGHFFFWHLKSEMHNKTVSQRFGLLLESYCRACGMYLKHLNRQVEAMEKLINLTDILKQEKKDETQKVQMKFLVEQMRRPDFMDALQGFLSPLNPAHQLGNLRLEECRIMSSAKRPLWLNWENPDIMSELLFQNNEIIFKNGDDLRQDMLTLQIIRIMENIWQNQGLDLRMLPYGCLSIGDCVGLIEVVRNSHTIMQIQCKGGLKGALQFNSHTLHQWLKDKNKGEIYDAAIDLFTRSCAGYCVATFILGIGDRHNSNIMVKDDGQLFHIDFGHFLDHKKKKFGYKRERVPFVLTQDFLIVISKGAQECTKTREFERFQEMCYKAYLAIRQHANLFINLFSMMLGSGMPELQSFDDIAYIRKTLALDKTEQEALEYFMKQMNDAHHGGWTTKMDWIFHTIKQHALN

[9] = target: T2, Phosphatidylinositol 4,5-bisphosphate 3-kinase catalytic subunit delta isoform (Homo sapiens, UniProt O00329); assay: Inhibition of PI3Kdelta (unknown origin)
T2 sequence (O00329 whole entry): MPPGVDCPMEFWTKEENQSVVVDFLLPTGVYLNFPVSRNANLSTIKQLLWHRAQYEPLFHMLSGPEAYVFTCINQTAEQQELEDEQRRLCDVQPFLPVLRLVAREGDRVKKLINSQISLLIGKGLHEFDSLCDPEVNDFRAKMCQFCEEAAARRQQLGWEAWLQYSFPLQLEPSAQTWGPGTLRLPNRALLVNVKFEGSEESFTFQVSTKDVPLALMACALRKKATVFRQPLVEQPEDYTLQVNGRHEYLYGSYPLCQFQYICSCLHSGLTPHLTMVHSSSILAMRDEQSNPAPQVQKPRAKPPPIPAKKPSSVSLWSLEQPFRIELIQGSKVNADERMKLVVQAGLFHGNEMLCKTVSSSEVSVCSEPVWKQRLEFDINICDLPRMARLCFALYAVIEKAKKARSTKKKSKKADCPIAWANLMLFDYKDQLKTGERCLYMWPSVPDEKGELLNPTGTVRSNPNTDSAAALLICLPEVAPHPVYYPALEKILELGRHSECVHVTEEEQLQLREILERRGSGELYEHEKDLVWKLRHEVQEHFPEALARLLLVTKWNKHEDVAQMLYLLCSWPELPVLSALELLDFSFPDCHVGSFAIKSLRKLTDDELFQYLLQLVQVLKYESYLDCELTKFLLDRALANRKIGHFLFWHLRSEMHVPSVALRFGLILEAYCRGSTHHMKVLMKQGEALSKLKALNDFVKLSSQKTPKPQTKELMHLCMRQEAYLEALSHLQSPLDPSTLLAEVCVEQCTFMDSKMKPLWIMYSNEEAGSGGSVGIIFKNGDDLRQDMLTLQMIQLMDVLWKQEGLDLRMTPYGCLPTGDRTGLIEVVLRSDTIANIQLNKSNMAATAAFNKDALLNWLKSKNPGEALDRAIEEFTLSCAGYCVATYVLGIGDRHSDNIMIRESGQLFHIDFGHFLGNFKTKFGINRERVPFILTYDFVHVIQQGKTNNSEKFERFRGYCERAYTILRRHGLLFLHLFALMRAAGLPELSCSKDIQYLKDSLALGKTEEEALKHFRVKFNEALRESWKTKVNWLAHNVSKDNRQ

[10] = Oral bioavailability mouse; assay type: ADME, organism-based; details: in vivo
[11] = target: T1, Phosphatidylinositol 4,5-bisphosphate 3-kinase catalytic subunit beta isoform; assay: Inhibition of PI3Kbeta human in PTEN wild type HCC1954 cells assessed as reduction of AKT phosphorylation at Ser 473; assay type: cell-based
[12] = Permeability of the compound across MDCK cells; assay type: ADME, cell-based, Canis lupus familiaris; details: dog, read-out: permeability
[13] = Clearance in mouse; assay type: ADME, organism-based; details: in vivo
[14] = Aqueous solubility of the compound; assay type: physicochemical
[15] = Clearance in rat; assay type: ADME, organism-based; details: in vivo
Mus musculus = assay: Dose normalized AUC in po dosed mouse; assay type: ADME, organism-based; details: in vivo
[16] = Clearance in monkey; assay type: ADME, organism-based, Macaca mulatta; details: rhesus monkey, in vivo

Row | Structure (SMILES) | EC50 [5] [nM] | IC50 [6] [nM] | IC50 [7] [nM] | IC50 [8] [nM] | IC50 [9] [nM] | EC50 [11] [nM] | also measured
1 | Cc1c(Cn2c(C)nc(=O)c3sc(N4CCOCC4)nc32)cccc1C(F)(F)F | 15.8 | 0.631 |  |  |  |  | fraction unbound [1]: 0.118; fraction unbound [2]: 0.254; fraction unbound [3]: 0.137; EC50 [4]: 6.31 nM
2 | CNc1cc(N2CCOCC2)nc2c(Cc3cccc(C(F)(F)F)c3C)c(C)nn12 |  | > 3160 | > 6310 | > 1580 | > 631 |  | 
3 | Cc1nn2c(O)cc(N3CCOCC3)nc2c1Cc1cccc(C(F)(F)F)c1C | 1580 | 0.398 | 316 | 316 | 25.1 | > 15800 | fraction unbound [1]: ≤ 0.001; fraction unbound [2]: ≤ 0.001; bioavailability [10]: 51%; fraction unbound [3]: ≤ 0.001; Papp [12]: 75.3 ×10⁻⁶ cm/s; EC50 [4]: 31.6 nM; clearance [13]: 3.7 mL/min/kg; solubility [14]: 134 µM (≈ 54.5 µg/mL); clearance [15]: 6.5 mL/min/kg; AUC/dose (Mus musculus): 2321 ng·h/mL/mg/kg; clearance [16]: 0.33 mL/min/kg
4 | Cc1nn2c(O)cc(N3CCOCC3)nc2c1Cc1cccc2ccccc12 | 1000 | 1 | 631 | 316 | 25.1 | > 31600 | 
5 | Cc1nn2c(O)cc(C3CCOCC3)nc2c1Cc1cccc(C(F)(F)F)c1C | 10000 | 3.98 | 2510 | > 1580 | 126 | > 31600 | 
6 | Cc1nn2c(O)cc(N3CCOCC3=O)nc2c1Cc1cccc(C(F)(F)F)c1C |  | 316 | 3160 | 251 | 158 |  | 
7 | Cc1nn2c(O)cc(N3CCOC(C)C3)nc2c1Cc1cccc(C(F)(F)F)c1C (centres undefined) |  | 2.51 | 398 | 200 | 15.8 |  | 
8 | Cc1c(Cc2cnn3c(O)cc(N4CCOCC4)nc23)cccc1C(F)(F)F | 1000 | 5.01 | 501 | 316 | 20 | > 31600 | EC50 [4]: 63.1 nM
9 | Cc1c(Cc2cnn3c(O)cc(-c4ccncc4)nc23)cccc1C(F)(F)F | 3160 | 2.51 | 316 | 501 | 100 | > 31600 | EC50 [4]: 25.1 nM
10 | CCc1nn2c(O)cc(-c3ccncc3)nc2c1Cc1cccc(Cl)c1Cl | 20000 | 0.631 | 398 | 158 | 20 | > 31600 | 
11 | CCc1nn2c(O)cc(C3CCOCC3)nc2c1Cc1cccc(Cl)c1Cl |  | 12.6 | > 7940 | > 1580 | > 398 |  | 
12 | Oc1cc(N2CCOCC2)nc2c(Cc3cccc(Cl)c3Cl)c(C(F)(F)F)nn12 | 5010 | 0.398 | 251 | 200 | 6.31 | > 31600 | 
13 | Oc1cc(-c2ccncc2)nc2c(Cc3cccc(Cl)c3Cl)c(C(F)(F)F)nn12 |  | 2.51 | 398 | 631 | 79.4 |  | 
14 | Oc1cc(C2CCOCC2)nc2c(Cc3cccc(Cl)c3Cl)c(C(F)(F)F)nn12 |  | 6.31 | > 6310 | 2510 | 100 |  | 
15 | COc1nn2c(O)cc(-c3ccncc3)nc2c1Cc1cccc(Cl)c1Cl | 12600 | 1.26 | 501 | 158 | 25.1 | > 31600 | EC50 [4]: 158 nM
16 | Nc1nn2c(O)cc(C3CCOCC3)nc2c1Cc1cccc(Cl)c1Cl | 2000 | 7.94 | > 3980 | 1580 | 631 | > 31600 | 
17 | COc1cc(N2CCOCC2)nc2c(Cc3cccc(C(F)(F)F)c3C)cnn12 |  | 1000 | > 5010 | > 5010 | > 631 |  | 
18 | Cc1c(Cc2cnn3c(Cl)cc(N4CCOCC4)nc23)cccc1C(F)(F)F |  | 316 | > 5010 | > 5010 | > 631 |  | 
19 | Cc1nn2ccc(C3CCOCC3)nc2c1Cc1cccc(C(F)(F)F)c1C |  | 794 | 2000 | > 1580 | > 501 |  | 
20 | Cc1nn2c(C(=O)O)cc(N3CCOCC3)nc2c1Cc1cccc(C(F)(F)F)c1C | 1000 | 5.01 | > 6310 | 1580 | 39.8 | > 31600 | 
21 | Cc1nn2c(C(N)=O)cc(N3CCOCC3)nc2c1Cc1cccc(C(F)(F)F)c1C | > 31600 | 25.1 | > 6310 | > 6310 | > 631 | > 31600 | 
22 | Cc1nn2c(C#N)cc(N3CCOCC3)nc2c1Cc1cccc(C(F)(F)F)c1C |  | > 1260 | > 3160 | > 1000 | > 251 |  | 
23 | Cc1nn2c(N)cc(N3CCOCC3)nc2c1Cc1cccc(C(F)(F)F)c1C | 1000 | 39.8 | > 1480 | > 2000 | 158 | > 31600 | 
24 | Cc1nn2c(NO)cc(C3CCOCC3)nc2c1Cc1cccc(C(F)(F)F)c1C |  | 39.8 | > 6310 | > 1580 | 251 |  | 
25 | Cc1nn2c(NCCO)cc(C3CCOCC3)nc2c1Cc1cccc(C(F)(F)F)c1C |  | 1260 | 5010 | > 1580 | > 631 |  | 
26 | CC(=O)Nc1cc(N2CCOCC2)nc2c(Cc3cccc(C(F)(F)F)c3C)c(C)nn12 |  | > 1260 | > 5010 | > 2000 | > 631 |  | 
27 | Cc1nn2c(NC(N)=O)cc(N3CCOCC3)nc2c1Cc1cccc(C(F)(F)F)c1C | > 31600 | 20 | > 6310 | > 6310 | > 631 | > 31600 | 
28 | Cc1c(Cc2c(=O)[nH]n3c(=O)cc(C4CCOCC4)[nH]c23)cccc1C(F)(F)F |  | 63.1 | > 5010 | > 2000 | > 631 |  | 
